In one assay the target is T1, ABL1-phosphorylated (Homo sapiens, UniProt P00519).
T1 construct: purchased Eurofins DiscoverX KINOMEscan
Kind of assay: KINOMEscan 1 μM, ABL1-phosphorylated. The format is binding. To be noted: 1000 nM; Entrez ABL1; read-out: Percent Control. The text has this: (§1) Supplement cells-12-00287-s001.zip/File S2. KinomeScan data for the CAMKK2 probe and negative control.xlsx, sheet "SGC-CAMKK2-1" | column: Percent Control

A further assay concerns the target T2, NEK5 (Homo sapiens, UniProt Q6P3R8).
T2 construct: purchased Eurofins DiscoverX KINOMEscan
Kind of assay: KINOMEscan 1 μM, NEK5. As to conditions: 1000 nM; Entrez NEK5; read-out: Percent Control. Format: binding.
Description: as §1

For a further assay, the target named is T3, CDK7 (Homo sapiens, UniProt P50613).
T3 construct: purchased Eurofins DiscoverX KINOMEscan
Kind of assay: KINOMEscan 1 μM, CDK7. Format: binding. As to conditions: 1000 nM; Entrez CDK7; read-out: Percent Control.
Description: as §1

The target in the next assay is T4, IKK-alpha (Homo sapiens, UniProt O15111).
T4 construct: purchased Eurofins DiscoverX KINOMEscan
T4 sequence (O15111 whole entry): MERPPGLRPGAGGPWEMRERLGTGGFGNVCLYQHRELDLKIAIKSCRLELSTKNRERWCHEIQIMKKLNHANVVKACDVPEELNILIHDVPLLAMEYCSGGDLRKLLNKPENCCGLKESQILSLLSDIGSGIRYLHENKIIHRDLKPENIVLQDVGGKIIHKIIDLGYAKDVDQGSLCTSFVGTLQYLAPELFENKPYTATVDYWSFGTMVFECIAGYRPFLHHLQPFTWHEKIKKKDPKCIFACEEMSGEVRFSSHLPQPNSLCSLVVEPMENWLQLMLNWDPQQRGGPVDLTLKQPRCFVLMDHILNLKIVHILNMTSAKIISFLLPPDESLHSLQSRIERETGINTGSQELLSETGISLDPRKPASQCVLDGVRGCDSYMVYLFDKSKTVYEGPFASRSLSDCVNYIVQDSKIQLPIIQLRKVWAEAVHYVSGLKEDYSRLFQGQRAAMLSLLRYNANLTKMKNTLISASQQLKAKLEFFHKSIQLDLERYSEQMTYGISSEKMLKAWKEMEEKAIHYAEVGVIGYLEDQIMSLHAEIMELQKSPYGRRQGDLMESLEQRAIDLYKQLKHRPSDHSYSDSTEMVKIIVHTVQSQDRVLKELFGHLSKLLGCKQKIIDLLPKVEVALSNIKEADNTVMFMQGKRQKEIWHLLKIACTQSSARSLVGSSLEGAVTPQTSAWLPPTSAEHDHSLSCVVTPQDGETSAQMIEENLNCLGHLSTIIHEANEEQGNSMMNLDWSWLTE
Kind of assay: KINOMEscan 1 μM, IKK-alpha. To be noted: 1000 nM; Entrez CHUK; read-out: Percent Control. The format is binding.
Description: as §1

The target in assay [1] is T5, TBK1 (Homo sapiens, UniProt Q9UHD2).
T5 construct: purchased Eurofins DiscoverX KINOMEscan
T5 sequence (Q9UHD2 whole entry): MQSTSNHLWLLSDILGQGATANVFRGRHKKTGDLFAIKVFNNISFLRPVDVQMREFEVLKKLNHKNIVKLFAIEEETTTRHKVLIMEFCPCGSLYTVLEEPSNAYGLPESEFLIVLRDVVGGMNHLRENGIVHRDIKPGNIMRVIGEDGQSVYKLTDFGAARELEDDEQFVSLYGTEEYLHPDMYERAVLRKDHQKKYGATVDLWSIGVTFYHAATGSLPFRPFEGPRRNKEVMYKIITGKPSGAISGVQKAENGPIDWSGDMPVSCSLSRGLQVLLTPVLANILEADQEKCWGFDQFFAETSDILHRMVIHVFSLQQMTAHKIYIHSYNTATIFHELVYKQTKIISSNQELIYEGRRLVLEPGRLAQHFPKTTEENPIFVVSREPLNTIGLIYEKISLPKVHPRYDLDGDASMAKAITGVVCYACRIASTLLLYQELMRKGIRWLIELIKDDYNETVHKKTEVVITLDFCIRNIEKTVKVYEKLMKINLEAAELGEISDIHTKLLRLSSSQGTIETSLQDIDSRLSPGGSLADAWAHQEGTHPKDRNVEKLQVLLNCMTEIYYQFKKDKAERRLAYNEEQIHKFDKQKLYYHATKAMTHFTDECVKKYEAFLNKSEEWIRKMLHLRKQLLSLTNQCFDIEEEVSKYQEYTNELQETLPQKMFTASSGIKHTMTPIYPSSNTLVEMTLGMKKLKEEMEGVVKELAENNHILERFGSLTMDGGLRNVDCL
In words: KINOMEscan 1 μM, TBK1. Format: binding. To be noted: 1000 nM; Entrez TBK1; read-out: Percent Control.
Description: as §1

The target in another assay is T6, SNARK (Homo sapiens, UniProt Q9H093).
T6 construct: purchased Eurofins DiscoverX KINOMEscan
Kind of assay: DiscoverX KINOMEscan binding assay at 1 μM, SNARK. As to conditions: SNARK (NUAK2); Compound Concentration 1000 nM; read-out: Percent Control.
Description: as §1

A further assay addresses T7, PIK3CA(H1047L) (Homo sapiens, UniProt P42336, H1047L).
T7 construct: purchased Eurofins DiscoverX KINOMEscan
In words: KINOMEscan 1 μM, PIK3CA(H1047L). Format: binding. To be noted: 1000 nM; Entrez PIK3CA; read-out: Percent Control.
Description: as §1

A further assay concerns the target T8, PIK3CA(E545K) (Homo sapiens, UniProt P42336, E545K).
T8 construct: purchased Eurofins DiscoverX KINOMEscan
In words: KINOMEscan 1 μM, PIK3CA(E545K). To be noted: 1000 nM; Entrez PIK3CA; read-out: Percent Control. Format: binding.
Description: as §1

For a further assay, the target named is T9, AMPK-alpha2 (Homo sapiens, UniProt P54646).
T9 construct: purchased Eurofins DiscoverX KINOMEscan
In words: KINOMEscan 1 μM, AMPK-alpha2. The format is binding. To be noted: 1000 nM; Entrez PRKAA2; read-out: Percent Control.
Description: as §1

For the next assay, the target named is T10, PAK4 (Homo sapiens, UniProt O96013).
T10 construct: purchased Eurofins DiscoverX KINOMEscan
T10 sequence (O96013 whole entry): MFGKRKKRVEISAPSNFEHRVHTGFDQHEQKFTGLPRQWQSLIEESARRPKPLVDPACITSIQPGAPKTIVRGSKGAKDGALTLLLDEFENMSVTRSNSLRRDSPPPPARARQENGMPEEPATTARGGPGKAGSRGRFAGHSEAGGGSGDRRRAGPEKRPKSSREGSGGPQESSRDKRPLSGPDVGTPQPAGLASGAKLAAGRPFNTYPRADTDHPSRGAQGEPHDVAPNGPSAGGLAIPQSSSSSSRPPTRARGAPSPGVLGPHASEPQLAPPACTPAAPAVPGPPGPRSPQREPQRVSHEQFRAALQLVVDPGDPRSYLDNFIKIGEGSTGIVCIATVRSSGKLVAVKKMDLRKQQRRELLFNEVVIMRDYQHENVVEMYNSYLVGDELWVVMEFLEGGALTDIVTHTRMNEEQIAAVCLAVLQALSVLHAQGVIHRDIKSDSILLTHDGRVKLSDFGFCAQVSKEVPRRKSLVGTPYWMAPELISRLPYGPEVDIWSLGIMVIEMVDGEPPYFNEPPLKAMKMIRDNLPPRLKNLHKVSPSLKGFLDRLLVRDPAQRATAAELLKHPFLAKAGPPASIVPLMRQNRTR
In words: KINOMEscan 1 μM, PAK4. To be noted: 1000 nM; Entrez PAK4; read-out: Percent Control. The format is binding.
Description: as §1

The next assay deals with T11, DCAMKL2 (Homo sapiens, UniProt Q8N568).
T11 construct: purchased Eurofins DiscoverX KINOMEscan
T11 sequence (Q8N568 whole entry): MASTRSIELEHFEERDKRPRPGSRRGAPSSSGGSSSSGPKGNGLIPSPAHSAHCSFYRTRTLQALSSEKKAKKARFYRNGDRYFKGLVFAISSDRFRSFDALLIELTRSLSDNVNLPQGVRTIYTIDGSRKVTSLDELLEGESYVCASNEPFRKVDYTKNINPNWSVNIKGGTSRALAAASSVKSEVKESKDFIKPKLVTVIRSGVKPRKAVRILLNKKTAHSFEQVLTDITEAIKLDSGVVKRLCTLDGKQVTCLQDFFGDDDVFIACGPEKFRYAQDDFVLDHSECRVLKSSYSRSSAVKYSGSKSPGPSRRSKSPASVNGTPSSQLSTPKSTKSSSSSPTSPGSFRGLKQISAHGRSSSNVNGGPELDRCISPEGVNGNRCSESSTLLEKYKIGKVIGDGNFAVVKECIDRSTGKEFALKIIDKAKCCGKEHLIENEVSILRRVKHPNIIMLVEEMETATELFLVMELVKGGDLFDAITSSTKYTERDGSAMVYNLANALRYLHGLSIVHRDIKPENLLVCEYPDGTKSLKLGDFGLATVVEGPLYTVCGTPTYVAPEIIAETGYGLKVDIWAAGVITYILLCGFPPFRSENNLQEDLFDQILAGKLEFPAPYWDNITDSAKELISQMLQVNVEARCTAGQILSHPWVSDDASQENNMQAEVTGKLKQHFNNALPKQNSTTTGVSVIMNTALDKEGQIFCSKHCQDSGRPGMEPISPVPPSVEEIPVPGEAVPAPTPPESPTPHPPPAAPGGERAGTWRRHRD
In words: KINOMEscan 1 μM, DCAMKL2. Format: binding. As to conditions: 1000 nM; Entrez DCLK2; read-out: Percent Control.
Description: as §1

The next assay has as its target T12, PRKCD (Homo sapiens, UniProt Q05655).
T12 construct: purchased Eurofins DiscoverX KINOMEscan
Kind of assay: DiscoverX KINOMEscan binding assay at 1 μM, PRKCD. To be noted: Compound Concentration 1000 nM, read-out: Percent Control.
Description: as §1

Another assay deals with T13, CDK4-cyclinD3 (Homo sapiens, UniProt P11802).
T13 construct: purchased Eurofins DiscoverX KINOMEscan
Kind of assay: KINOMEscan 1 μM, CDK4-cyclinD3. Format: binding. As to conditions: 1000 nM; Entrez CDK4; read-out: Percent Control.
Description: as §1

The target in a further assay is T14, NEK11 (Homo sapiens, UniProt Q8NG66).
T14 construct: purchased Eurofins DiscoverX KINOMEscan
In words: KINOMEscan 1 μM, NEK11. The format is binding. To be noted: 1000 nM; Entrez NEK11; read-out: Percent Control.
Description: as §1

Another assay addresses T15, CSNK1G3 (Homo sapiens, UniProt Q9Y6M4).
T15 construct: purchased Eurofins DiscoverX KINOMEscan
Kind of assay: KINOMEscan 1 μM, CSNK1G3. The format is binding. As to conditions: 1000 nM; Entrez CSNK1G3; read-out: Percent Control.
Description: as §1

A further assay addresses T16, PIP5K1A (Homo sapiens, UniProt Q99755).
T16 construct: purchased Eurofins DiscoverX KINOMEscan
In words: DiscoverX KINOMEscan binding assay at 1 μM, PIP5K1A. To be noted: Compound Concentration 1000 nM, read-out: Percent Control.
Description: as §1

In a further assay the target is T17, MLK3 (Homo sapiens, UniProt Q16584).
T17 construct: purchased Eurofins DiscoverX KINOMEscan
Kind of assay: KINOMEscan 1 μM, MLK3. Format: binding. To be noted: 1000 nM; Entrez MAP3K11; read-out: Percent Control.
Description: as §1

In the next assay the target is T18, LRRK2(G2019S) (Homo sapiens, UniProt Q5S007, G2019S).
T18 construct: purchased Eurofins DiscoverX KINOMEscan
Kind of assay: KINOMEscan 1 μM, LRRK2(G2019S). The format is binding. To be noted: 1000 nM; Entrez LRRK2; read-out: Percent Control.
Description: as §1

A further assay has as its system EGFR(L747-T751del,Sins). In words: KINOMEscan binding assay at 1 μM, EGFR(L747-T751del,Sins). More on the design: species or system human. To be noted: Compound Concentration 1000 nM. The text has this:
(§2) Supplement cells-12-00287-s001.zip/File S2. KinomeScan data for the CAMKK2 probe and negative control.xlsx, sheet "SGC-CAMKK2-1N" | column: Percent Control

The next assay has as its target T19, FYN (Homo sapiens, UniProt P06241).
T19 construct: purchased Eurofins DiscoverX KINOMEscan
Kind of assay: KINOMEscan at 1 μM, FYN. The format is binding. To be noted: 1000 nM, read-out: Percent Control.
Description: as §2

For the next assay, the target named is T20, MAPKAPK2 (Homo sapiens, UniProt P49137).
T20 construct: purchased Eurofins DiscoverX KINOMEscan
In words: KINOMEscan binding assay at 1 μM, MAPKAPK2. As to conditions: Compound Concentration 1000 nM; read-out: Percent Control.
Description: as §2

The target of a further assay is T21, ULK1 (Homo sapiens, UniProt O75385).
T21 construct: purchased Eurofins DiscoverX KINOMEscan
In words: KINOMEscan at 1 μM, ULK1. The format is binding. As to conditions: 1000 nM, read-out: Percent Control.
Description: as §2

Another assay deals with T22, KIT(V559D,V654A) (Homo sapiens, UniProt P10721, V559D/V654A).
T22 construct: purchased Eurofins DiscoverX KINOMEscan
Kind of assay: KINOMEscan at 1 μM, KIT(V559D,V654A). Format: binding. As to conditions: 1000 nM, read-out: Percent Control.
Description: as §2

The target in the next assay is T23, WNK1 (Homo sapiens, UniProt Q9H4A3).
T23 construct: purchased Eurofins DiscoverX KINOMEscan
In words: KINOMEscan at 1 μM, WNK1. Format: binding. To be noted: 1000 nM, read-out: Percent Control.
Description: as §2

The target of assay [2] is T5, TBK1. In words: KINOMEscan at 1 μM, TBK1. The format is binding. To be noted: 1000 nM, read-out: Percent Control.
Description: as §2

The target of a further assay is T24, FLT3(D835Y) (Homo sapiens, UniProt P36888, D835Y).
T24 construct: purchased Eurofins DiscoverX KINOMEscan
In words: KINOMEscan binding assay at 1 μM, FLT3(D835Y). As to conditions: Compound Concentration 1000 nM; read-out: Percent Control.
Description: as §2

In another assay the target is T25, TNNI3K (Homo sapiens, UniProt Q59H18).
T25 construct: purchased Eurofins DiscoverX KINOMEscan
Kind of assay: KINOMEscan at 1 μM, TNNI3K. To be noted: 1000 nM, read-out: Percent Control. Format: binding.
Description: as §2

The next assay addresses T26, PCTK3 (Homo sapiens, UniProt Q07002).
T26 construct: purchased Eurofins DiscoverX KINOMEscan
In words: KINOMEscan binding assay at 1 μM, PCTK3. As to conditions: Compound Concentration 1000 nM; read-out: Percent Control.
Description: as §2

For another assay, the target named is T27, TAOK1 (Homo sapiens, UniProt Q7L7X3).
T27 construct: purchased Eurofins DiscoverX KINOMEscan
In words: KINOMEscan at 1 μM, TAOK1. As to conditions: 1000 nM, read-out: Percent Control. The format is binding.
Description: as §2

The target in another assay is T28, RIOK1 (Homo sapiens, UniProt Q9BRS2).
T28 construct: purchased Eurofins DiscoverX KINOMEscan
In words: KINOMEscan at 1 μM, RIOK1. The format is binding. To be noted: 1000 nM, read-out: Percent Control.
Description: as §2

Another assay has as its target T29, CDKL3 (Homo sapiens, UniProt Q8IVW4).
T29 construct: purchased Eurofins DiscoverX KINOMEscan
In words: KINOMEscan at 1 μM, CDKL3. Format: binding. As to conditions: 1000 nM, read-out: Percent Control.
Description: as §2

For another assay, the target named is T30, MRCKA (Homo sapiens, UniProt Q5VT25).
T30 construct: purchased Eurofins DiscoverX KINOMEscan
Kind of assay: KINOMEscan at 1 μM, MRCKA. Format: binding. To be noted: 1000 nM, read-out: Percent Control.
Description: as §2

The target of another assay is T31, MST3 (Homo sapiens, UniProt Q9Y6E0).
T31 construct: purchased Eurofins DiscoverX KINOMEscan
Kind of assay: KINOMEscan binding assay at 1 μM, MST3. As to conditions: Compound Concentration 1000 nM; read-out: Percent Control.
Description: as §2

T1 sequence (P00519 whole entry): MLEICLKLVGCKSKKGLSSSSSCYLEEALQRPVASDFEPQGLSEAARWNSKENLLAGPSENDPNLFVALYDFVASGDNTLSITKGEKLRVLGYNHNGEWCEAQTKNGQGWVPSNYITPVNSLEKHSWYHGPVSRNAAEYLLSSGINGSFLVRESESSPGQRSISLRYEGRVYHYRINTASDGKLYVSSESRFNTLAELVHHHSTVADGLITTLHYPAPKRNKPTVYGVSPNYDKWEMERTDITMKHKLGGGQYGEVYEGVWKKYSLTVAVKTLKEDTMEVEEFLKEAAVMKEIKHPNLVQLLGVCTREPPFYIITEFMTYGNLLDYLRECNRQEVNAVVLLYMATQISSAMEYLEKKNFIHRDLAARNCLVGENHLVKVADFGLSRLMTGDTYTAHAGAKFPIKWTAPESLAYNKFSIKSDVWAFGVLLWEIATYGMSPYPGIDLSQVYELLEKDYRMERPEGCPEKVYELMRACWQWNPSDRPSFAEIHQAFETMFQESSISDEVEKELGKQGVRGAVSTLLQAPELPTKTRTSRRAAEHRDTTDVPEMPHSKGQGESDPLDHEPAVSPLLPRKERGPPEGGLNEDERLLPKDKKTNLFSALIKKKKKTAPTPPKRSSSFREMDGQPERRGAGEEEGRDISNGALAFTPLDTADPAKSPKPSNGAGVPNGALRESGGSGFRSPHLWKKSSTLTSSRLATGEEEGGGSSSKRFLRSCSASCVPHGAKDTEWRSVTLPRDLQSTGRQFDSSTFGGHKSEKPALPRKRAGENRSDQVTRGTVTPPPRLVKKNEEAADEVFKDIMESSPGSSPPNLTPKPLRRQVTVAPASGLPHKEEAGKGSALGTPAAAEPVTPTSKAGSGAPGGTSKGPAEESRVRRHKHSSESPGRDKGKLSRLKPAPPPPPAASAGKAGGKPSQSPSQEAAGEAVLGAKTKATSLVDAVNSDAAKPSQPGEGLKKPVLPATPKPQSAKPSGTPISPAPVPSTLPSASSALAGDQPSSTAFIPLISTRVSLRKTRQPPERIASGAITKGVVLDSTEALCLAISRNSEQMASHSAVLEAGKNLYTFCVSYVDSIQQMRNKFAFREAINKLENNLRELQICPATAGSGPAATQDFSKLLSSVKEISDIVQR
T7 sequence (P42336 whole entry H1047L): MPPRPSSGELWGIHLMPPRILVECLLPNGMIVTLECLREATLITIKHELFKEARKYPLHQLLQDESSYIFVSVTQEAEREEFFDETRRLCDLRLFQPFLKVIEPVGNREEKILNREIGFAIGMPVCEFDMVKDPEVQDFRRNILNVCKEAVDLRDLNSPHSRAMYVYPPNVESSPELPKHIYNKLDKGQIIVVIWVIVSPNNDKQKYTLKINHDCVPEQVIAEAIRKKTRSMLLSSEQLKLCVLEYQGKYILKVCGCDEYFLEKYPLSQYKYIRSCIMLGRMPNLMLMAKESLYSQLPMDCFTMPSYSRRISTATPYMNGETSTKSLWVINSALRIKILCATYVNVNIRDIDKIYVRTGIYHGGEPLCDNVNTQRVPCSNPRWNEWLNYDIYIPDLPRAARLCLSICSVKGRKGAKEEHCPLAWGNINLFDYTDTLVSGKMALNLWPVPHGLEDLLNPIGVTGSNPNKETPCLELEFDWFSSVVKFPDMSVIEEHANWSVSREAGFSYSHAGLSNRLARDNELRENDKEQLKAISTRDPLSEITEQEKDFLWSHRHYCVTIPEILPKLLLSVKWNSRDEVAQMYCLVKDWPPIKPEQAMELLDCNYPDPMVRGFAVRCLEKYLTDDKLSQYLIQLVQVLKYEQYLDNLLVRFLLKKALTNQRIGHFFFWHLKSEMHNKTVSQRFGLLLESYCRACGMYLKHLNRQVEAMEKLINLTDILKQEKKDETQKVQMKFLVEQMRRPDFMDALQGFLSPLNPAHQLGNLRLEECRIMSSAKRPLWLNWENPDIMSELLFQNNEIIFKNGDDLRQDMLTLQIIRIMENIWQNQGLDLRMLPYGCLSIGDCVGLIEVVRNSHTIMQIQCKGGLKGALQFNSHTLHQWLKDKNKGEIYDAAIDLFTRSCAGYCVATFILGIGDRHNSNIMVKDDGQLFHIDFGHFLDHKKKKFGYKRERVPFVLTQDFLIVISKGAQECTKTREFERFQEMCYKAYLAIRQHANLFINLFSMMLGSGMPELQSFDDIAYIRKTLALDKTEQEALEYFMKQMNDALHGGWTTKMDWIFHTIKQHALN
T8 sequence (P42336 whole entry E545K): as the sequence (P42336 whole entry H1047L) above, with E545K, L1047H counted along it

With `Cc1cccc(-c2cnc3occ(-c4ccc(C(=O)O)c(C5CCCC5)c4)c3c2)c1` [SGC-CAMKK2-1 (YL-36)], the remaining binding at 1 µM on ABL1-phosphorylated worked out at 98%; on NEK5 it was 100%; on CDK7, 92%; on IKK-alpha, 100%; on TBK1 [1] it was 94%; at SNARK, 100%. The remaining binding at 1 µM on PIK3CA(H1047L) came out at 78%; at PIK3CA(E545K), 94%; on AMPK-alpha2, 100%; at PAK4, 69%; at DCAMKL2, 94%; on PRKCD, 100%. The remaining binding at 1 µM on CDK4-cyclinD3 amounted to 100%; at NEK11, 100%; on CSNK1G3, 99%; at PIP5K1A, 100%; on MLK3, 89%; at LRRK2(G2019S), 100%.
Regarding `O=C(O)c1ccc(-c2coc3ncc(-c4ccccc4)cc23)cc1Cl` [SGC-CAMKK2-1N (UNC-YL-83)], the “Percent Control” value in the assay with EGFR(L747-T751del,Sins) is 100%. The remaining binding at 1 µM amounted to 80% on FYN; 100% at MAPKAPK2; 66% at ULK1; 92% at KIT(V559D,V654A); 66% at WNK1; 64% on TBK1 [2]. Moreover, the remaining binding at 1 µM at FLT3(D835Y) is 100%; at TNNI3K, 95%; at PCTK3, 100%; at TAOK1, 77%; at RIOK1, 91%; at CDKL3, 63%. Moreover, the remaining binding at 1 µM on MRCKA was 96%; on MST3 it was 100%.
